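Cultured in 96-well plates, cells were exposed to test compound for 48 hours across five concentrations. TGI: total growth inhibition.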
Legend:
Assay in all cases: inhibition of tumour cell growth, NCI panel, 48 h
[1] = test system: OVCAR-8 ovarian
[2] = test system: SK-OV-3 ovarian
[3] = test system: KM12 colon
[4] = test system: HCT-116 colon
[5] = test system: MOLT-4 leukemia
[6] = test system: T-47D breast
[7] = test system: NCI-H226 lung
[8] = test system: UACC-62 melanoma
[9] = test system: U251 CNS
[10] = test system: SF-539 CNS
[11] = test system: COLO 205 colon
[12] = test system: A549 NSCLC
[13] = test system: CCRF-CEM leukemia
[14] = test system: SNB-75 CNS
[15] = test system: HL-60(TB) leukemia
[16] = test system: UACC-257 melanoma
[17] = test system: HOP-92 NSCLC
[18] = test system: IGROV1 ovarian
[19] = test system: LOX IMVI melanoma

CC(C)=CCC[C@@H](C)C1=C(O)C(O)C(C)=C2N=C(c3ccccc3)C(=O)OC21 (stereo partly drawn)
TGI [1]: > 11 µM | TGI [2]: 11.1 µM | TGI [3]: > 18.3 µM | TGI [4]: > 8.46 µM | TGI [5]: > 19.3 µM | TGI [6]: 8.66 µM | TGI [7]: 6.94 µM | TGI [8]: 5.95 µM | TGI [9]: > 25 µM | TGI [10]: 13.8 µM | TGI [11]: > 25 µM | TGI [12]: > 23 µM | TGI [13]: > 5.47 µM | TGI [14]: > 19.3 µM | TGI [15]: 1.63 µM | TGI [16]: > 25 µM | TGI [17]: > 7.8 µM | TGI [18]: > 25 µM | TGI [19]: > 25 µM

COc1cccc(OC/C(N=Cc2cccnc2)=N/NC(=O)c2ccncc2)c1
TGI [1]: > 100 µM | TGI [2]: > 100 µM | TGI [3]: > 100 µM | TGI [4]: > 100 µM | TGI [5]: > 100 µM | TGI [6]: > 100 µM | TGI [7]: > 100 µM | TGI [8]: > 100 µM | TGI [9]: > 100 µM | TGI [10]: > 100 µM | TGI [11]: > 100 µM | TGI [12]: > 100 µM | TGI [13]: > 100 µM | TGI [14]: > 100 µM | TGI [15]: > 100 µM | TGI [16]: > 100 µM | TGI [17]: > 100 µM | TGI [18]: > 100 µM | TGI [19]: > 100 µM

COc1ccc2cc(CNCCCCCCCCCCCCNCc3ccc4cc(OC)ccc4c3)ccc2c1
TGI [1]: 32.4 µM | TGI [2]: 32.7 µM | TGI [3]: 40.1 µM | TGI [4]: 32.8 µM | TGI [5]: > 58.9 µM | TGI [6]: 49.9 µM | TGI [7]: 32.5 µM | TGI [8]: 38.4 µM | TGI [9]: 43.8 µM | TGI [10]: 31.8 µM | TGI [11]: > 55.9 µM | TGI [12]: > 54.8 µM | TGI [13]: > 37.4 µM | TGI [14]: 28.7 µM | TGI [15]: 34.9 µM | TGI [16]: 36.3 µM | TGI [17]: 47.5 µM | TGI [18]: 29.9 µM | TGI [19]: 28.2 µM

C=C1C(=O)C23CC1C[C@H](OC(C)=O)[C@H]2C1(C)C(OC(C)=O)C[C@H](O)C(C)(C)[C@H]1C(=O)[C@@H]3OC(C)=O (stereo partly drawn)
TGI [1]: 7.9 µM | TGI [2]: 32 µM | TGI [3]: 23.8 µM | TGI [4]: 6.16 µM | TGI [5]: 4.03 µM | TGI [6]: 5.44 µM | TGI [7]: 43.3 µM | TGI [8]: 9.51 µM | TGI [9]: 29.3 µM | TGI [10]: 6.47 µM | TGI [11]: 4.8 µM | TGI [12]: 33.7 µM | TGI [13]: 7.65 µM | TGI [14]: 32.8 µM | TGI [15]: 4.47 µM | TGI [16]: 11 µM | TGI [17]: 7.84 µM | TGI [18]: 25.8 µM | TGI [19]: 10.3 µM

COc1ccc2nc3c([N+](=O)[O-])ccc4c3c(c2c1)N=CN4CCCN(C)C
TGI [1]: 25.7 µM | TGI [2]: 25.3 µM | TGI [3]: 13 µM | TGI [4]: 14.1 µM | TGI [5]: 0.757 µM | TGI [6]: 27.4 µM | TGI [7]: 24.9 µM | TGI [8]: 28.1 µM | TGI [9]: 24.3 µM | TGI [10]: 13 µM | TGI [11]: 5.77 µM | TGI [12]: 13.4 µM | TGI [13]: 3.18 µM | TGI [14]: 11.1 µM | TGI [15]: 6.27 µM | TGI [16]: 17.2 µM | TGI [17]: 8.94 µM | TGI [18]: 6.16 µM | TGI [19]: 8.78 µM

COC(=O)c1cc2c(o1)Sc1ccccc1NC2=O
TGI [1]: > 100 µM | TGI [2]: > 100 µM | TGI [3]: > 100 µM | TGI [4]: > 100 µM | TGI [5]: > 100 µM | TGI [6]: > 100 µM | TGI [7]: > 100 µM | TGI [8]: > 100 µM | TGI [9]: > 100 µM | TGI [10]: > 100 µM | TGI [11]: > 100 µM | TGI [12]: > 100 µM | TGI [13]: > 100 µM | TGI [14]: 66.6 µM | TGI [15]: > 100 µM | TGI [16]: > 100 µM | TGI [17]: > 100 µM | TGI [18]: > 100 µM | TGI [19]: > 100 µM

CN(C)C=C1C(=O)c2c(Br)sc(Br)c2C1=O
TGI [1]: 72.3 µM | TGI [2]: 62.7 µM | TGI [3]: > 100 µM | TGI [4]: 53.9 µM | TGI [5]: > 100 µM | TGI [6]: > 100 µM | TGI [7]: 33.3 µM | TGI [8]: 37.1 µM | TGI [9]: 39.6 µM | TGI [10]: 35.7 µM | TGI [11]: 37.7 µM | TGI [12]: > 100 µM | TGI [13]: > 100 µM | TGI [14]: 43.5 µM | TGI [15]: 53.7 µM | TGI [16]: 33 µM | TGI [17]: 37.1 µM | TGI [18]: 46.8 µM | TGI [19]: 38.9 µM

Reference: PubChem BioAssay (NCI)
